In patent US20250268877A1 (BIOGEN MA INC., priority 2020, published 2025):
Values after ≈ are worked out from the molar mass of the structure shown. Like-named read-outs stand apart in the source and are kept apart here.

Experiments:
[1] = target: Human MDR1 transfected MDCK cells (Homo sapiens (Human), UniProt P08183); assay: MDR1-MDCK assay (apparent permeability, efflux ratio); format: in vitro ADME; conditions: 1 μM, 120 minutes
IRAK4 = IRAK4 (Homo sapiens (Human), UniProt Q9NWZ3); assay: IRAK4 2-hour 1 mM ATP Biochemical Assay (MesoScale Detection format)
[2] = Kinetic solubility assay (CLND), potassium phosphate buffer pH 6.8; format: physicochemical; conditions: pH 6.8, 2% DMSO, 24 hours at ambient temperature; for solubility at 24 h: pH 6.8, aqueous buffer
Description: • Inject filtrates into the nitrogen detector for quantification on Analiza's Automated Discovery Workstation (ADW). • Solubility results generated in μg/mL

MDR1 = MDR1 (Homo sapiens (Human), UniProt P08183); assay: MDR1-MDCK assay (apparent permeability, efflux ratio); format: in vitro ADME; conditions: human, MDCK-MDR1, 1 μM
[3] = Kpuu assay (in vivo brain-to-plasma partition, unbound); conditions: brain (unbound) versus plasma (unbound), intravenous infusion 4 to 24 h, unbound drug partition coefficient, read-out: Brain Kpu,u
Protocol: For the brain-to-plasma partition coefficient (Kp) evaluation, a dosing solution was intravenously infused into animals at a constant flow rate for 4 to 24 h. Blood samples were serially collected during infusion, and CSF and brain samples were harvested at the end of infusion.
Tissue samples were typically homogenized in phosphate buffer saline (PBS) using a bead ruptor.
CSF samples were typically diluted with 8% BSA in PBS to prevent from non-specific binding. Artificial CSF (aCSF) is used as the surrogate matrix.
Calibration curves were prepared by spiking the analyte(s) into blank matrices, which were processed together with plasma, tissue homogenate and/or CSF samples by protein precipitation using a proper organic solvent (e.g. acetonitrile and methanol) containing generic analogue internal standards (e.g. verapamil, chrysin and glyburide). Matrix matching was used when analyzing multiple matrices in the same run. Samples above the upper limit of quantitation (ULOQ) needed to be diluted into the calibration range using either a pre-extraction or post-extraction dilution approach.
Processed samples were analyzed by LC-MS/MS using a proper method performing within the acceptable sensitivity, selectivity, precision and accuracy. For an analytical run to be accepted, over 75% of the calibration standards in the dual calibration curves needed to be within 20% of the nominal concentrations.
Brain concentrations were compared against plasma concentrations at the corresponding timepoint for the calculation of partition coefficient (Kp).
Unbound drug partition coefficient (Kpuu), defined as the ratio of unbound drug partition across the blood-brain barrier, was calculated using the equation below:
[formula] • Cb: measured total drug concentration in brain • Fub: unbound drug fraction in brain • Cp: measured total drug concentration in plasma • Fup: unbound drug fraction in plasma Compound- or study-specific PK analysis that deviates from the typical procedure might be used when necessary, which will be documented in a study specific protocol included in the data upload.
Mix thoroughly. • This spiked plasma solution is shown in FIG. 1. • 3) Prepare a chilled ‘crash’ solution of internal standard in a solvent solution. • Pipette 200 μL of 25 ng/mL solution of internal standard, CPDPX (8-Cyclopentyl-1,3-dipropylxanthine, Sigma-Aldrich, C101) in 1:1 acetonitrile/methanol solvent solution into a 1 mL 96-well plate. • Chill on ice or refrigerate at 4° C. • This solution becomes the ‘Crash’ plate in FIG. 1. • 4) From remaining spiked plasma, remove 50 μL (T=0 h) of each plasma sample and place into a crash plate which contains 200 μL. To matrix match, add 50 μL of blank buffer to the crashed sample (similar to PPB samples). […] Mix crash plate thoroughly. • From remaining spiked plasma, remove 50 μL (T=4 h) of each plasma sample and place into a crash plate. To matrix match, add 50 μL of blank buffer to the crashed sample (similar to the protein binding samples). • Centrifuge crash plate at 3900 rpm for 10 minutes at 4° C.
% Free=(PAR of buffer side/PAR of plasma side)*100 • PAR—Peak area ratio (PAR)
Fu=% Free/100 • Fu=fraction unbound

[4] = target: catalytical domain of human IRAK4 (a.a. 163-460) (Homo sapiens (Human), UniProt Q9NWZ3); assay: IRAK4 SPR binding assay; conditions: single-cycle, 1:1 interaction model
Protocol: IRAK4 SPR. IRAK4 SPR was set up on Biacore T200 or S200 by using Biotin CAPture kit (Cytiva). In brief, purified IRAK4 in capture buffer (25 mM Hepes, 150 mM NaCl, 1 mM TCEP, pH7.4) was captured onto a CAP sensor surface via the interaction of biotin to streptavidin Typical capture level is between 1,000 RU to 2,000 RU, Compound binding kinetics to IRAK4 was examined with running buffer (25 mM Hepes, 150 mM NaCl, 1 mM TCEP, 2% DMSO, pH7.4). Serially diluted compounds were injected at 50 μl/min in single-cycle for 60-s association of each injection followed by 360-s dissociation at the end. The data was fitted to global 1:1 interaction model.

[5] = 100 pM IRAK4, read-out: IRAK4 IC50
[6] = read-out: MDR1-MDCK_Efflux Ratio
[7] = potassium phosphate buffer, kinetic from dmso stock

Chain of catalytical domain of human IRAK4 (a.a. 163-460) (Q9NWZ3 163-460): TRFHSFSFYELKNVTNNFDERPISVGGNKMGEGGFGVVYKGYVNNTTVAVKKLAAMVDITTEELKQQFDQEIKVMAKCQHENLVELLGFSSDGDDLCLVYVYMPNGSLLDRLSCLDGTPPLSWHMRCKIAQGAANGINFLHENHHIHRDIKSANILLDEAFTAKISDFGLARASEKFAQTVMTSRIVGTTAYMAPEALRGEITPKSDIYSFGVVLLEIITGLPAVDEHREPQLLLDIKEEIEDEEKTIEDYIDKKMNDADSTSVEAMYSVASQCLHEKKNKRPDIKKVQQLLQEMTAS
Chain of MDR1 (P08183 whole entry, the tested form may be a part): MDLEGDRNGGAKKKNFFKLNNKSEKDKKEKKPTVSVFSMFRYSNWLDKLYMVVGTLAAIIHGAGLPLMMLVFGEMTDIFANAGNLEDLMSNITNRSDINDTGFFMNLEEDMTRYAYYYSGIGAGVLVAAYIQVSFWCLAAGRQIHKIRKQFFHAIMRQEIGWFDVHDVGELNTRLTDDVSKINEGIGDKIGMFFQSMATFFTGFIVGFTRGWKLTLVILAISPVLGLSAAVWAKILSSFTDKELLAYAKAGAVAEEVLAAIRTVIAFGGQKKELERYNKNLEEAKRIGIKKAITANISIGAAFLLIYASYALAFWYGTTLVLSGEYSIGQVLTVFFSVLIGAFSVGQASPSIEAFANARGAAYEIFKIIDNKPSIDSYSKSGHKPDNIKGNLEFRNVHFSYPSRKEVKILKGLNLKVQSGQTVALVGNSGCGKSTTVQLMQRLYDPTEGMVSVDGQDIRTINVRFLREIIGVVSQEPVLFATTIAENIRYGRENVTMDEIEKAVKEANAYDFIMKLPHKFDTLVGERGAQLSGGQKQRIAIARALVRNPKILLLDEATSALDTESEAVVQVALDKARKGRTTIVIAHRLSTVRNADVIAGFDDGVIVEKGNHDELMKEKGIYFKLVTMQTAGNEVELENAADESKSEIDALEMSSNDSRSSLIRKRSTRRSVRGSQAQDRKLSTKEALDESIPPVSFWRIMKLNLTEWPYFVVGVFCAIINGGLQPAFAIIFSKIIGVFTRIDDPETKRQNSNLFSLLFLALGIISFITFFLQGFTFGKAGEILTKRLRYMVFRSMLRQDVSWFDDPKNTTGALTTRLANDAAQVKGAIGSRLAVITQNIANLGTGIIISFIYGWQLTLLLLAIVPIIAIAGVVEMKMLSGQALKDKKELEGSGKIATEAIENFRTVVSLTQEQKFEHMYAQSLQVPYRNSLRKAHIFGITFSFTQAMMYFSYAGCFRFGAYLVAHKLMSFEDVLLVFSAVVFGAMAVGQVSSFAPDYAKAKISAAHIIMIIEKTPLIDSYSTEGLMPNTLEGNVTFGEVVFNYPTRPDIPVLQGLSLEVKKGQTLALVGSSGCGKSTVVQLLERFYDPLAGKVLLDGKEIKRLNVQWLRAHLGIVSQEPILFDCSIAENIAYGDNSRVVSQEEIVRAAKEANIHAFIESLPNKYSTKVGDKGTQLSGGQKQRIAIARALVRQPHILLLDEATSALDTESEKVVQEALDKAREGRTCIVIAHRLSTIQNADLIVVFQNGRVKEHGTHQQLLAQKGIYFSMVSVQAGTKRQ
Chain of Human MDR1 transfected MDCK cells (P08183 whole entry): as the sequence (P08183 whole entry, the tested form may be a part) above
Chain of IRAK4 (Q9NWZ3 whole entry): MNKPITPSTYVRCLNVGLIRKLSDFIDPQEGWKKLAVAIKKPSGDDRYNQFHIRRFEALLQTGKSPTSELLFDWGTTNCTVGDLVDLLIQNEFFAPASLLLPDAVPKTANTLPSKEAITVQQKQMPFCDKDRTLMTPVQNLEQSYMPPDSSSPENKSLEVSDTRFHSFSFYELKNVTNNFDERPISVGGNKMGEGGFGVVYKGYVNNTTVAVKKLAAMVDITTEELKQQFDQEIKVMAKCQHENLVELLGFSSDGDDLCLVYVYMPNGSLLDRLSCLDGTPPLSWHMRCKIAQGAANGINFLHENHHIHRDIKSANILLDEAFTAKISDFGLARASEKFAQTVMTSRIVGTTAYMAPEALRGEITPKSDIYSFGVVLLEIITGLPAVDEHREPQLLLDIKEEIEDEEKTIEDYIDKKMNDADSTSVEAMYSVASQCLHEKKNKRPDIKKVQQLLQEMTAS

Row | Compound | MDR1-MDCK_Efflux Ratio [1] | IC50 (IRAK4; [5]) [nM] | efflux ratio at 120 min, 1 μM (MDR1; [6]) | Kp [3] | solubility at 24 h [2, 7] [mg/mL] | IRAK4 SPR binding Half Life [4] [min] | other results
1 | C[C@@H]1C[C@@H]1n1cccc(NC(=O)c2cc3cn([C@@]45CC[C@@H](C4)OC5)nc3nc2OC2CC2)c1=O (single isomer, unassigned) [Example 94] | 2.73 | 0.6 | – | – | – | – | Solubility pH 6.8 [2]: 14.7 ug/mL
2 | CC12CC(n3cc4cc(C(=O)Nc5cccn([C@H]6C[C@H]6F)c5=O)c(OC5CC5)nc4n3)(CO1)C2 [Example 85, 6-cyclopropoxy-N-(1-((1S,2R)-2-fluorocyclopropyl)-2-oxo-1,2-dihydropyridin-3-yl)-2-(1-methyl-2-oxabicyclo[2.1.1]hexan-4-yl)-2H-pyrazolo[3,4-b]pyridine-5-carboxamide] | – | 0.2 | 7.21 | 0.3 | 0.0201 (≈ 43.2 µM) | 48 | –
3 | CC(C)Oc1cc2nn([C@@]34CC[C@@](C)(C3)OC4)cc2cc1C(=O)Nc1cccn(C2CC2)c1=O [Example 2, N-(1-cyclopropyl-2-oxo-1,2-dihydropyridin-3-yl)-6-isopropoxy-2-((1S,4S)-1-methyl-2-oxabicyclo[2.2.1]heptan-4-yl)-2H-indazole-5-carboxamide] | – | 0.4 | 1.58 | 0.9 | 0.0517 (≈ 112 µM) | 52.85 | –
4 | C[C@@H]1C[C@@H]1n1cccc(NC(=O)c2cc3cn(C45COC(CF)(C4)C5)nc3nc2OC2CC2)c1=O [Example 92] | 5.77 | 1.7 | – | – | – | – | Solubility pH 6.8 [2]: 12.8 ug/mL
5 | CC(C)Oc1cc2nn(C34COC(CF)(C3)C4)cc2cc1C(=O)Nc1cccn([C@H]2C[C@H]2F)c1=O [Example 52, N-(1-((1S,2R)-2-fluorocyclopropyl)-2-oxo-1,2-dihydropyridin-3-yl)-2-(1-(fluoromethyl)-2-oxabicyclo[2.1.1]hexan-4-yl)-6-isopropoxy-2H-indazole-5-carboxamide] | – | 0.2 | 5.16 | 0.3 | 0.0384 (≈ 79.3 µM) | 70.7 | –
6 | CC(C)Oc1nc2nn(C34COC(CF)(C3)C4)cc2cc1C(=O)Nc1cccn(C2CC2)c1=O [Example 10, N-(1-cyclopropyl-2-oxo-1,2-dihydropyridin-3-yl)-2-(1-(fluoromethyl)-2-oxabicyclo[2.1.1]hexan-4-yl)-6-isopropoxy-2H-pyrazolo[3,4-b]pyridine-5-carboxamide] | – | 0.2 | 3.4 | 0.6 | 0.0227 (≈ 48.5 µM) | 73.4 | –
7 | CC(C)Oc1nc2nn([C@]34CC[C@](C)(C3)OC4)cc2cc1C(=O)Nc1cccn(C)c1=O (single isomer, unassigned) [Comparator 1C, reference compound] | – | – | – | – | – | – | efflux ratio at 120 min, 1 μM (MDR1; comparator table, read-out: MDR1-MDCK Efflux Ratio): 1.2; IC50 (IRAK4; 100 pM IRAK4, comparator table, read-out: IRAK4 Biochemical IC50): 0.4 nM; Kp ([3]; comparator table): 1.3; solubility kinetic at 24 h ([2]; potassium phosphate buffer, aqueous buffer, kinetic from dmso stock, comparator table): 0.0443 mg/mL (≈ 101 µM); IRAK4 SPR binding Half Life ([4]; comparator table): 27.1 min
8 | CC(C)Oc1cc2nn(C34COC(CF)(C3)C4)cc2cc1C(=O)Nc1cccn([C@@H]2C[C@@H]2C)c1=O [Example 81, 2-(1-(fluoromethyl)-2-oxabicyclo[2.1.1]hexan-4-yl)-6-isopropoxy-N-(1-((1R,2S)-2-methylcyclopropyl)-2-oxo-1,2-dihydropyridin-3-yl)-2H-indazole-5-carboxamide] | 1.95 | 37 | – | – | – | – | –
